Consider two molecules from patent US20250135009A1, “INTRATYMPANIC DRUG CONTROLLED RELEASE-TYPE FORMULATION COMPRISING N-ACYLATED GLYCOL CHITOSAN” (The Industry & Academic Cooperation in Chungnam National …, priority 2021, published 2025).

In brackets after ≈: the same amount, converted by molar mass.

The nature of data set [1]: In vitro drug release in PBS using a dialysis membrane. The conditions noted are these: HGC 3.0 wt %, drug 2.0 wt % formulations and drug controls. Format: physicochemical. The procedure:
The in vitro drug release profiles of the thermogel formulations were examined in PBS (pH 7.4) using a dialysis membrane. […] Then, the dialysis bags were immersed in 50 mL of PBS and incubated in a shaking water bath (SI-600R, Jeio Tech, Seoul, Korea) at 37° C. and 100 rpm or less.
After incubation, 10 ml of the release medium was taken out and the same amount of fresh medium was added again. The collected samples were analyzed by UV-Vis measurement. The DEX release profile was determined by measuring the UV absorbance of DEX at 242 nm. The experiment was performed in triplicate and data are expressed as mean±SD.
023 microspheres loaded with dexamethasone were mixed with 4 wt % of HGC hydrogel. An in vitro drug release test was conducted in a PBS (pH 7.4, 50 ml) environment in the same manner as in Example 4. Sampling was performed at days 0, 0.5, 1, 2, 4, 7, 14, 21, 28, and 30.
Dexamethasone-loaded 061 or 062 microspheres were mixed with 4 wt % of HGC hydrogel, and an in vitro drug release test therefor was conducted in the same manner as the test for the 023.

Another data set can be described thus: physchem. The procedure:
Changes in water solubility of dexamethasone (DEX) with changes in HGC concentration were analyzed. An excessive amount of DEX was added to 3 mL of an aqueous solution of HGC (PBS, HGC concentration=0 to 4%, w/v). The samples were then stirred for 30 minutes and incubated in a shaking water bath (100 rpm, 37° C.) for 24 hours. All the samples were filtered through a syringe filter (0.8 μm) to remove precipitates and then analyzed using a UV-visible spectrophotometer (V-730, JASCO, Korea). The solubility value of DEX was determined using a standard curve of various DEX concentrations obtained at 242 nm. The test was repeated three times.

Take `C[C@@H]1C[C@H]2[C@@H]3CCC4=CC(=O)C=C[C@]4(C)[C@@]3(F)[C@@H](O)C[C@]2(C)[C@@]1(O)C(=O)COP(=O)([O-])[O-].[Na+].[Na+]` [DSP, DEX phosphate disodium salt]: the “drug release behavior (Example 8-2)” value in data set [1] is given as “completely released the drug quickly within a few hours”.

Regarding `C[C@@H]1C[C@H]2[C@@H]3CCC4=CC(=O)C=C[C@]4(C)[C@@]3(F)[C@@H](O)C[C@]2(C)[C@@]1(O)C(=O)CO` [DEX, Dexamethasone], in “physchem”, the “increase of solubility of dexamethasone” value is “about 4 times”. The molecule also yielded a solubility at 24 h in the data set “physchem” (37 °C, aqueous with cosolvent or surfactant or cyclodextrin, thermodynamic from solid) of 221 µg/mL (≈ 563 µM). In addition, the “solubility of dexamethasone in PBS” value in the data set “physchem” (HGC 0 wt %, 37° C., 24 hours) is 64 µg/mL.

In general, solubility refers to the dissolved amount per volume that the medium holds.
